Laboratory results from ChEMBL document CHEMBL6120970, “Discovery and Functional Characterization of a Potent, Selective, and Metabolically Stable PROTAC of the Protein Kinases DYRK1A and DYRK1B” (J Med Chem, 2024).
In brackets after ≈: the same amount, converted by molar mass. Activity calls are given as the source filed them. The rule behind the calls is not given here.

Experiments:
[1] = biological target: Protein cereblon/Dual specificity tyrosine-phosphorylation-regulated kinase 1B (Homo sapiens, UniProt Q96SW2+Q9Y463); assay: Competitive binding affinity to CRBN/DYRK1B (unknown origin) assessed as dissociation constant; type: protein assay
[2] = biological target: T1, Protein cereblon/Dual specificity tyrosine-phosphorylation-regulated kinase 1A (Homo sapiens, UniProt Q13627+Q96SW2); assay: PROTAC activity at CRBN/HibiT-tagged DYRK1A in Flp-In-T-REx-293 cells assessed as induction of degradation of DYRK1A at 100 to 300 nM by measured after 24 hrs by NanoBiT luciferase assay; type: cell-based; conditions: dose 100-300 nM
[3] = biological target: T1, Protein cereblon/Dual specificity tyrosine-phosphorylation-regulated kinase 1A; assay: PROTAC activity at CRBN/DYRK1A in HEK293 cells assessed as induction of degradation of DYRK1A at 1 to 10000 nM incubated for 24 hrs in presence of 4-(3-(2-fluoro-4-(4-methylpiperazin-1-yl)phenyl)-2-methyl-3H-imidazo[4,5-b]pyridin-5-yl)pyridin-2-amine; type: cell-based; conditions: dose 1-10000 nM
[4] = biological target: T1, Protein cereblon/Dual specificity tyrosine-phosphorylation-regulated kinase 1A; assay: PROTAC activity at CRBN/DYRK1A in HEK293 cells assessed as induction of degradation of DYRK1A at 1 to 10000 nM incubated for 24 hrs in presence of CaNDY; type: cell-based; conditions: dose 1-10000 nM
HEK293 [5] = assay: Effect on DCAF7 expression in HEK293 cells at 1 to 10000 nM; type: functional, cell-based; conditions: Homo sapiens, dose 1-10000 nM
[6] = biological target: T1, Protein cereblon/Dual specificity tyrosine-phosphorylation-regulated kinase 1A; assay: PROTAC activity at CRBN/DYRK1A in HEK293 cells assessed as induction of degradation of DYRK1A at 100 nM measured within 8 hrs by Western blot analysis; type: cell-based
[7] = biological target: T2, Protein cereblon/Dual specificity tyrosine-phosphorylation-regulated kinase 1B (Homo sapiens) (UniProt Q9Y463+Q96SW2); assay: PROTAC activity at CRBN/DYRK1B in HEK293 cells assessed as induction of degradation of DYRK1B at 100 nM measured within 8 hrs by Western blot analysis; type: cell-based
HEK293 [8] = assay: Downregulation of DYRK1B mRNA expression in HEK293 cells at 100 nM measured after 24 hrs by qRT-PCR analysis; type: functional, cell-based; conditions: Homo sapiens
[9] = biological target: T2, Protein cereblon/Dual specificity tyrosine-phosphorylation-regulated kinase 1B (Homo sapiens); assay: PROTAC activity at CRBN/DYRK1B in HEK293 cells overexpressing DYRK1B p65 assessed as induction of degradation of DYRK1B at 1 uM measured after 24 hrs by Western blot analysis; type: cell-based
[10] = biological target: T2, Protein cereblon/Dual specificity tyrosine-phosphorylation-regulated kinase 1B (Homo sapiens); assay: PROTAC activity at CRBN/DYRK1B in HEK293 cells overexpressing DYRK1B-p69 assessed as induction of degradation of DYRK1B at 1 uM measured after 24 hrs by Western blot analysis; type: cell-based
[11] = biological target: T1, Protein cereblon/Dual specificity tyrosine-phosphorylation-regulated kinase 1A; assay: PROTAC activity at CRBN/DYRK1A in HEK293 cells assessed as induction of degradation of DYRK1A at 100 nM incubated for 24 hrs; type: cell-based
[12] = biological target: T2, Protein cereblon/Dual specificity tyrosine-phosphorylation-regulated kinase 1B (Homo sapiens); assay: PROTAC activity at CRBN/DYRK1B in HEK293 cells assessed as induction of degradation of DYRK1B at 100 nM pretreated with leucettine-41 followed by compound addition and incubated for 8 hrs; type: cell-based
[13] = biological target: T2, Protein cereblon/Dual specificity tyrosine-phosphorylation-regulated kinase 1B (Homo sapiens); assay: PROTAC activity at CRBN/DYRK1B in HEK293 cells assessed as induction of degradation of DYRK1B at 100 nM pretreated with lenalidomide followed by compound addition and incubated for 8 hrs; type: cell-based
[14] = biological target: T1, Protein cereblon/Dual specificity tyrosine-phosphorylation-regulated kinase 1A; assay: PROTAC activity at CRBN/DYRK1A in HEK293 cells assessed as induction of degradation of DYRK1A at 100 nM pretreated with MLN4924 followed by compound addition and incubated for 8 hrs; type: cell-based
[15] = biological target: T2, Protein cereblon/Dual specificity tyrosine-phosphorylation-regulated kinase 1B (Homo sapiens); assay: PROTAC activity at CRBN/DYRK1B in HEK293 cells assessed as induction of degradation of DYRK1B at 100 nM pretreated with MLN4924 followed by compound addition and incubated for 8 hrs; type: cell-based
[16] = biological target: T2, Protein cereblon/Dual specificity tyrosine-phosphorylation-regulated kinase 1B (Homo sapiens); assay: PROTAC activity at CRBN/DYRK1B in HEK293 cells assessed as induction of degradation of DYRK1B at 100 nM pretreated with bortezomib followed by compound addition and incubated for 8 hrs; type: cell-based
[17] = biological target: T1, Protein cereblon/Dual specificity tyrosine-phosphorylation-regulated kinase 1A; assay: PROTAC activity at CRBN/DYRK1A in Flp-In-T-REx-293 cells overexpressing GFP-DYRK1A assessed as half life at 1 uM measured upto 6 hrs by fluorescence based phase contrast microscopy analysis; type: cell-based
[18] = biological target: T1, Protein cereblon/Dual specificity tyrosine-phosphorylation-regulated kinase 1A; assay: PROTAC activity at CRBN/DYRK1A in human SH-SY5Y cells assessed as induction of degradation of DYRK1A at 100 nM incubated for 8 hrs relative to control; type: cell-based
[19] = biological target: T1, Protein cereblon/Dual specificity tyrosine-phosphorylation-regulated kinase 1A; assay: PROTAC activity at CRBN/DYRK1A in human PANC-1 cells assessed as induction of degradation of DYRK1A at 100 nM incubated for 8 hrs; type: cell-based
[20] = biological target: T1, Protein cereblon/Dual specificity tyrosine-phosphorylation-regulated kinase 1A; assay: PROTAC activity at CRBN/DYRK1A in human HeLa cells assessed as induction of degradation of DYRK1A at 100 nM incubated for 8 hrs; type: cell-based
[21] = biological target: T1, Protein cereblon/Dual specificity tyrosine-phosphorylation-regulated kinase 1A; assay: PROTAC activity at CRBN/DYRK1A in human SH-SY5Y cells assessed as induction of degradation of DYRK1A at 100 nM incubated for 24 hrs; type: cell-based
[22] = biological target: T1, Protein cereblon/Dual specificity tyrosine-phosphorylation-regulated kinase 1A; assay: PROTAC activity at CRBN/DYRK1A in HEK293 cells expressing GFP-SF3B1 assessed as inhibition of SF3B1 phosphorylation at 10 nM measured for 48 hrs by Western blot analysis; type: cell-based
[23] = biological target: T2, Protein cereblon/Dual specificity tyrosine-phosphorylation-regulated kinase 1B (Homo sapiens); assay: PROTAC activity at CRBN/DYRK1B in HEK293 cells assessed as induction of degradation of DYRK1B at 100 nM incubated for 24 hrs; type: cell-based
[24] = Solubility of the compound in PBS buffer; type: physicochemical
[25] = Solubility of the compound in FeSSIF buffer; type: physicochemical
[26] = Half life in mouse plasma; type: ADME, cell-free
[27] = Half life in mouse blood; type: ADME, tissue-based
[28] = Permeability of the compound by PAMPA method; type: ADME; conditions: read-out: permeability
[29] = Permeability of the compound in human Caco-2 cells across basolateral side to apical side; type: ADME, cell-based; conditions: read-out: permeability
[30] = biological target: T1, Protein cereblon/Dual specificity tyrosine-phosphorylation-regulated kinase 1A; assay: Competitive binding affinity to CRBN/DYRK1A (unknown origin) assessed as residence time; type: protein assay
[31] = biological target: T1, Protein cereblon/Dual specificity tyrosine-phosphorylation-regulated kinase 1A; assay: Competitive binding affinity to CRBN/DYRK1A (unknown origin) assessed as association rate constant Kon; type: protein assay
[32] = biological target: T1, Protein cereblon/Dual specificity tyrosine-phosphorylation-regulated kinase 1A; assay: Competitive binding affinity to CRBN/DYRK1A (unknown origin) assessed as dissociation rate constant Koff; type: protein assay
[33] = Half life in mouse at 1 mg/kg, iv administered as single dose; type: ADME, organism-based; conditions: in vivo
[34] = AUClast in mouse at 1 mg/kg, iv administered as single dose; type: ADME, organism-based; conditions: in vivo
[35] = Tmax in mouse at 10 mg/kg, ip administered as single dose; type: ADME, organism-based; conditions: in vivo
[36] = Bioavailability in mouse at 10 mg/kg, ip administered as single dose; type: ADME, organism-based; conditions: in vivo
[37] = Cmax in mouse at 10 mg/kg, po administered as single dose; type: ADME, organism-based; conditions: in vivo
[38] = MRT in mouse at 10 mg/kg, po administered as single dose; type: ADME, organism-based; conditions: in vivo
[39] = Oral availability in mouse at 10 mg/kg administered as single dose; type: ADME, organism-based; conditions: in vivo

## Cc1nc2ccc(-c3ccnc(N)c3)nc2n1-c1ccc(N2CCN(CC#Cc3ccc(N4CCC(C(=O)N5CCC(n6cc(CNc7cccc8c7C(=O)N(C7CCC(=O)NC7=O)C8=O)cn6)CC5)CC4)nc3)CC2)c(F)c1 (centres undefined)
[1]
  Kd: 0.016 µM
[2]
  Activity: Active
[3]
  Activity: inactive
[4]
  Activity: inactive
HEK293 [5]
  Activity: inactive
[6]
  Activity: Active
[7]
  Activity: Active
HEK293 [8]
  Activity: inactive
[9]
  Activity: inactive
[10]
  Activity: Active
[11]
  Activity: Active
[12]
  Activity: inactive
[13]
  Activity: inactive
[14]
  Activity: inactive
[15]
  Activity: inactive
[16]
  Activity: inactive
[17]
  T1/2: 0.95 h
[18]
  Activity: 100%
[19]
  Activity: Active; Compound Showed Partial Degradation
[20]
  Activity: inactive
[21]
  Activity: Active
[22]
  Activity: Active
[23]
  Activity: Active
[24]
  solubility: < 0.009 µM
[25]
  solubility: 2.09 µM (≈ 2.22 µg/mL)
[26]
  half-life: 6.97 h
[27]
  half-life: 15.2 h
[28]
  Papp: < 0.05 nm/s
[29]
  Papp B→A: < 2.43 nm/s
[30]
  TIME: 0.383 h
[31]
  K: 1.83 10^5/M/s
[32]
  K: 7.25 10^-4/s
[33]
  half-life: 3.33 h
[34]
  AUC(0-t): 2.46 µg·h/mL
[35]
  Tmax: 0.25 h
[36]
  bioavailability: 109%
[37]
  Cmax: 0.0185 µg/mL
[38]
  MRT: 2.51 h
[39]
  bioavailability: 0.25%
